Laboratory results reported in publication PMC3039689, “Identification of Small Molecule Lead Compounds for Visceral Leishmaniasis Using a Novel Ex Vivo Splenic Explant Model System” (PLoS Neglected Tropical Diseases, 2011).
Structures can show the parent of a compound that is named as a salt. Where two headings read alike, the source gives them in different places.

Tests used:
[1] = Cell toxicity (CC50) in the HepG2 cell line, CellTiter-Glo; type: cell-based, human; conditions: human
Procedure: (§1) After 24 hours of culture at 37°C the number of viable cells was determined by quantification of the ATP present in the cell using the CellTiter-Glo luminescent Cell Viability Assay (Promega).

[2] = tested on: luciferase-transfected Leishmania donovani; test: Anti-leishmanial efficacy (EC50) in the ex vivo splenic explant model; type: cell-based
Procedure: To establish the plate assay for drug screening, the spleens from 2 infected hamsters were aseptically removed and placed in a Petri dish containing 5 mL of Collagenase D (Roche) at 2 mg/mL of buffer (10 mM Hepes pH 7.4, 150 mM NaCl, 5 mM KCl, 1 mM MgCl2, 1.8 mM CaCl2). The spleen was infiltrated by injection with approximately 2 mL of Collagenase solution, the tissue was cut into small pieces using sharp scissors, and incubated for 20 minutes at 37°C. The cell suspension and remaining tissue fragments were gently passed through a 100 µm cell strainer (B–D) to obtain a single cell suspension, which was washed twice by centrifugation (500 g for 7 min at 4°C) and re-suspended in culture medium composed of DMEM (Gibco), 5% FBS, 1 mM Sodium pyruvate (Gibco), 1X MEM amino acids solution (Sigma), 0.02% v/v/EDTA, 10 mM HEPES buffer (Cellgro) and 100 IU/mL Penicillin/100 […] Streptomycin solution (Cellgro).
The anti-leishmanial efficacy of the compounds was determined using the splenic explant model in a 96-well plate format. […] Because variation in the parasite burden between different explant cultures was expected, the concentration of cells used in each experiment was adjusted to give approximately 100 counts by luminometry (equivalent to ∼240,000 parasites). The number of surviving parasites was determined by luminometry as described above.

HepG2 cells = test: Cell toxicity (CC50) in the HepG2 cell line, CellTiter-Glo; type: cell-based, human
Procedure: as §1

[3] = Leishmania donovani, 48 h, ex vivo splenic explant, 48 h, luminometry, at least two experiments, compound from screened library, read-out: Ex vivo model EC50 Mean
[4] = Leishmania donovani, ex vivo splenic explant, 48 h, luminometry, at least two experiments, compound from screened library, read-out: Ex vivo model EC50 Mean
[5] = HepG2 cell line, 24 h, ATP luminescence, compound from screened library, read-out: HepG2 CC50 Mean
[6] = ex vivo splenic explant, 48 h, luminometry, at least two experiments, compound from screened library, read-out: Ex vivo model EC50 Mean
[7] = HepG2 cells, HepG2 cell line, 24 h, ATP luminescence, compound from screened library, read-out: HepG2 CC50 Mean
[8] = Leishmania donovani, 50% reduction in parasite counts in the ex vivo model, read-out: EC50 Mean (Table S2)

Molecule `CCCCCCCCCCC[C@@H](C[C@@H]1OC(=O)[C@H]1CCCCCC)OC(=O)[C@H](CC(C)C)NC=O` [Orlistat] has a CC50 at 24 h [1] of 161 µM and an EC50 [2, 3] of 24.9 µM.
For `N=C1C=CC(=C(c2ccc(N)cc2)c2ccc(N)cc2)C=C1` [Pararosaniline Pamoate], the CC50 at 24 h [1] was 37.1 µM and the EC50 [2, 4] was 2.7 µM.
Work on `C=C1C(=O)O[C@@H]2[C@H]1CC[C@H](C)[C@]1(O)C=CC(=O)[C@@]21C` [Parthenicin] yielded a CC50 (HepG2 cells; [5]) of 64.5 µM and an EC50 [2, 6] of 8.7 µM.
Work on `C=C1C(=O)O[C@H]2[C@H]1CC/C(C)=C/CC[C@@]1(C)O[C@@H]21` [Parthenolide] yielded a CC50 at 24 h [1, 7] of 81.1 µM, an EC50 [2, 3] of 13.3 µM and an EC50 [2, 8] of 13.3 µM.
`C[C@]12C(=O)C=CCC1=CC[C@@H]1[C@@H]2CC[C@@]2(O)C(=O)O[C@@]3(C)[C@H]4C[C@]5(C)[C@@H](CO[C@@]16O[C@]23[C@H]5C6=O)C(=O)O4` [Physalin B] showed a CC50 at 24 h [1, 5] of 50.7 µM, an EC50 [2, 8] of 8.59 µM and an EC50 [2, 4] of 8.6 µM.
`CN(C)CCCNc1c2c(=O)n(C)c(=O)nc-2n(C)c2ccccc12` [Pyrimido[4,5-b]quinoline-2,4(3H,10H)-dione, 5-[[3-(dimethylamino)propyl]amino]-3,10-dimethyl-, monohydrochloride] showed a CC50 at 24 h [1, 7] of 49.5 µM and an EC50 [2, 3] of 6.5 µM.
`C=C1C(=O)[C@]23[C@H](O)[C@H]1CC[C@H]2[C@@]12CO[C@]3(O)[C@@H](O)[C@@H]1C(C)(C)CC[C@@H]2O` [Rubescensin A] showed a CC50 (HepG2 cells) of 69.1 µM and an EC50 [2, 6] of 11 µM.
For `CC[C@@H](C(=O)[C@@H](C)[C@@H](O)[C@H](C)[C@@H]1O[C@@H]([C@@H](CC)C(=O)O)CC[C@@H]1C)[C@H]1O[C@]2(C=C[C@@H](O)[C@]3(CC[C@@](C)([C@H]4CC[C@](O)(CC)[C@H](C)O4)O3)O2)[C@H](C)C[C@@H]1C` [Salinomycin, Sodium], the CC50 (HepG2 cells; [5]) was 48.4 µM, the EC50 ([2]; 50% reduction in parasite counts in the ex vivo model, read-out: EC50 Mean (Table S2)) was 7.44 µM and the EC50 [2, 6] was 7.4 µM.
Molecule `O=C1C=C2C=C[C@@H]3C[C@@]2(O1)[C@H]1CCCCN31` [Securinine] has a CC50 [1, 5] of 47.7 µM and an EC50 [2, 4] of 6.2 µM.
Work on `NCCCCNCCCN` [Spermidine Trihydrochloride] yielded a CC50 at 24 h [1, 7] of 132 µM and an EC50 [2, 3] of 20 µM.
Work on `CC1CC(C)(O)CC(C(O)CC2CC(=O)NC(=O)C2)C1=O` (centres unmarked) [Streptovitacin A] yielded a CC50 (HepG2 cells; [5]) of 32.4 µM and an EC50 [2, 6] of 3.7 µM.
`CCCC(c1cc(C(C)(C)C)c(O)cc1C)c1cc(C(C)(C)C)c(O)cc1C` [Sumilit BBM] gave a CC50 (HepG2 cells; [5]) of 71.7 µM and an EC50 [2, 6] of 9.4 µM.
For `COc1ccc2cc1Oc1ccc(cc1)C[C@H]1c3cc(c(OC)cc3CCN1C)Oc1c(OC)c(OC)cc3c1[C@H](C2)N(C)CC3` [Tetrandrine], the CC50 at 24 h [1] was 31.4 µM and the EC50 [2, 4] was 5.6 µM.
Molecule `COc1ccc2c(=O)oc3c(OC)cc(CCN(C)C)c4c(=O)oc1c2c34` [Thaspine Acetate] has a CC50 (HepG2 cells; [5]) of 51.4 µM and an EC50 [2, 6] of 2.7 µM.
`CSc1ccc2c(c1)N(CCCN(C)C)c1ccccc1S2` [Thiomethylpromazine] gave a CC50 (HepG2 cells; [5]) of 83.9 µM and an EC50 [2, 6] of 13 µM.
With `O=c1c2ccccc2sc2c(CO)ccc(NCCN3CCCCC3)c12` [Thioxanthen-9-one, 4-(hydroxymethyl)-1-[(2-piperidinoethyl)amino]-; 9H-Thioxanthen-9-one, 4-(hydroxymethyl)-1-[[2-(1-piperidinyl)ethyl]amino]-] the CC50 (HepG2 cells; [5]) was 56 µM and the EC50 [2, 6] was 9.1 µM.
`CC(C)[C@@H]1NC(=O)[C@H](C)OC(=O)[C@@H](C(C)C)NC(=O)[C@@H](C(C)C)OC(=O)[C@H](C(C)C)NC(=O)[C@H](C)OC(=O)[C@@H](C(C)C)NC(=O)[C@@H](C(C)C)OC(=O)[C@H](C(C)C)NC(=O)[C@H](C)OC(=O)[C@@H](C(C)C)NC(=O)[C@@H](C(C)C)OC1=O` [Valinomycin] gave a CC50 at 24 h [1, 5] of 10.7 µM and an EC50 [2, 4] of 0.02 µM.
Work on `O=C1C=C2C=C[C@H]3C[C@]2(O1)[C@@H]1CCCCN13` [Virosecurinine] yielded a CC50 (HepG2 cells; [5]) of 121 µM and an EC50 [2, 6] of 8.8 µM.
Work on Benzalkonium Chloride yielded a CC50 (HepG2 cells; [5]) of 38.6 µM and an EC50 [2, 6] of 6.4 µM.
